Test results reported in ChEMBL document CHEMBL3097995, “NAD-based inhibitors with anticancer potential” (Bioorg Med Chem Lett, 2014).

Columns and labels:
Plasma = assay: Metabolic stability in human plasma; type: ADME, cell-free
[1] = target: Inosine-5'-monophosphate dehydrogenase 1 (Homo sapiens, UniProt P20839); assay: Inhibition of IMPDH1 (unknown origin)
K562 = assay: Antiproliferative activity against human K562 cells; type: functional, cell-based
[2] = target: Inosine-5'-monophosphate dehydrogenase 2 (Homo sapiens, UniProt P12268); assay: Inhibition of IMPDH2 (unknown origin)
DU-145 = assay: Antiproliferative activity against human DU145 cells; type: functional, cell-based
HL-60 = assay: Antiproliferative activity against human HL60 cells; type: functional, cell-based
PC-3 = assay: Antiproliferative activity against human PC3 cells; type: functional, cell-based
HeLa = assay: Antiproliferative activity against human HeLa cells; type: functional, cell-based
HT-29 = assay: Antiproliferative activity against human HT-29 cells; type: functional, cell-based

Inosine-5'-monophosphate dehydrogenase 1, sequence (P20839 whole entry): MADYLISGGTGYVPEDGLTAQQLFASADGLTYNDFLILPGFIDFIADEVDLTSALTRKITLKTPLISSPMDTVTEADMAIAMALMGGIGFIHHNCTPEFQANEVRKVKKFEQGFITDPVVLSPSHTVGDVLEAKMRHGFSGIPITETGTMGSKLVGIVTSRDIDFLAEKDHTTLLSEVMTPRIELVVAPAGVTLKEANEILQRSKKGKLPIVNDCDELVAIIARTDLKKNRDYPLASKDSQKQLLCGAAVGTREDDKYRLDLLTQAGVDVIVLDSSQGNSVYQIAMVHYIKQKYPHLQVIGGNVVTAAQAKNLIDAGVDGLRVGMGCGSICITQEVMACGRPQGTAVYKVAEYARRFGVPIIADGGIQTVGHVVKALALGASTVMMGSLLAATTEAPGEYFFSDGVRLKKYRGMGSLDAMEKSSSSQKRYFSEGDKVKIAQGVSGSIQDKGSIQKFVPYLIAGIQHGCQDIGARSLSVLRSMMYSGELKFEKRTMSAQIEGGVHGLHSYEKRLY

Compound: COc1c(C)c2c(c(O)c1C/C=C(\C)CCC(=O)OCCN1CCOCC1)C(=O)OC2 [MYCOPHENOLATE MOFETIL]
- Stability (Plasma): Unstable

Compound: COc1c(C)c2c(c(O)c1C/C=C(\C)CCC(=O)OC[C@@H]1O[C@H](n3cnc4c(N)ncnc43)[C@@H](O)[C@H]1O)C(=O)OC2
- Stability (Plasma): Unstable
- Ki [1]: 2550 nM
- IC50 (K562): 1.6 µM
- Ki [2]: 231 nM
- IC50 (DU-145): 1.5 µM
- IC50 (HL-60): 2.1 µM

Compound: COC(=O)[C@H](CO)NC(=O)CC/C(C)=C/Cc1c(O)c2c(c(C)c1OC)COC2=O
- Ki [1]: 1020 nM
- IC50 (PC-3): > 100 µM
- IC50 (K562): 4.2 µM
- Ki [2]: 94 nM
- IC50 (DU-145): 13 µM
- IC50 (HL-60): 18 µM

Compound: COc1c(C)c2c(c(O)c1C/C=C(\C)CCC(=O)N[C@@H](CO)C(=O)O)C(=O)OC2
- Ki [1]: 2810 nM
- IC50 (PC-3): > 100 µM
- IC50 (K562): > 100 µM
- Ki [2]: 2790 nM
- IC50 (DU-145): > 100 µM
- IC50 (HL-60): > 100 µM

Compound: COC(=O)[C@@H](Cc1c[nH]c2ccccc12)NC(=O)CC/C(C)=C/Cc1c(O)c2c(c(C)c1OC)COC2=O
- Ki [1]: 144 nM
- IC50 (PC-3): > 100 µM
- IC50 (K562): 14 µM
- Ki [2]: 438 nM
- IC50 (DU-145): > 100 µM
- IC50 (HL-60): 35 µM

Compound: COc1c(C)c2c(c(O)c1C/C=C(\C)CCC(=O)NC[C@H]1O[C@@H](n3cnc4c(N)ncnc43)[C@H](O)[C@@H]1O)C(=O)OC2
- Ki [1]: 265 nM
- IC50 (PC-3): > 100 µM
- IC50 (K562): 49 µM
- Ki [2]: 84 nM
- IC50 (DU-145): > 100 µM
- IC50 (HL-60): > 100 µM

Compound: COc1c(C)c2c(c(O)c1C/C=C(\C)CCC(=O)N1CCC[C@H]1C(=O)O)C(=O)OC2
- Ki [1]: 906 nM
- Ki [2]: 524 nM

Compound: COC(=O)[C@H](Cc1ccc(O)cc1)NC(=O)CC/C(C)=C/Cc1c(O)c2c(c(C)c1OC)COC2=O
- Ki [1]: 1830 nM
- IC50 (PC-3): 11 µM
- IC50 (K562): 6.8 µM
- Ki [2]: 364 nM
- IC50 (DU-145): 6.3 µM
- IC50 (HL-60): 4.7 µM

Compound: COc1c(C)c2c(c(O)c1CCOP(=O)(O)CP(=O)(O)OC[C@H]1O[C@@H](n3cnc4c(N)nc(-c5ccco5)nc43)[C@H](O)[C@@H]1O)C(=O)OC2
- IC50 (HeLa): 3000 nM
- IC50 (HT-29): 9.8 µM
- Ki [1]: 63 nM
- IC50 (K562): 0.8 µM
- Ki [2]: 37 nM

Compound: COC(=O)[C@H](Cc1ccccc1)NC(=O)CC/C(C)=C/Cc1c(O)c2c(c(C)c1OC)COC2=O
- Ki [1]: 4360 nM
- IC50 (PC-3): > 100 µM
- IC50 (K562): 50 µM
- Ki [2]: 437 nM
- IC50 (DU-145): > 100 µM
- IC50 (HL-60): 35 µM

Compound: COc1c(C)c2c(c(O)c1C/C=C(\C)CCC(=O)N[C@H](Cc1ccccc1)C(=O)O)C(=O)OC2
- Ki [1]: 4310 nM
- IC50 (PC-3): > 100 µM
- IC50 (K562): > 100 µM
- Ki [2]: 2670 nM
- IC50 (DU-145): 10 µM
- IC50 (HL-60): > 100 µM

Compound: COc1c(C)c2c(c(O)c1C/C=C(\C)CCC(=O)N[C@@H](Cc1ccccc1)C(=O)O)C(=O)OC2
- Ki [1]: 854 nM
- IC50 (PC-3): > 100 µM
- IC50 (K562): > 100 µM
- Ki [2]: 163 nM
- IC50 (DU-145): > 100 µM
- IC50 (HL-60): > 100 µM

Compound: COc1c(C)c2c(c(O)c1C/C=C(\C)CCC(=O)N[C@H](Cc1c[nH]c3ccccc13)C(=O)NC[C@H]1O[C@@H](n3cnc4c(N)ncnc43)[C@H](O)[C@@H]1O)C(=O)OC2
- Ki [1]: 56 nM
- IC50 (PC-3): > 100 µM
- IC50 (K562): > 100 µM
- Ki [2]: 40 nM
- IC50 (DU-145): > 100 µM
- IC50 (HL-60): > 100 µM

Compound: COc1c(C)c2c(c(O)c1C/C=C(\C)CCC(=O)N[C@@H](Cc1ccccc1)C(=O)NC[C@H]1O[C@@H](n3cnc4c(N)ncnc43)[C@H](O)[C@@H]1O)C(=O)OC2
- Ki [1]: 259 nM
- IC50 (PC-3): > 100 µM
- IC50 (K562): > 100 µM
- Ki [2]: 188 nM
- IC50 (DU-145): > 100 µM
- IC50 (HL-60): > 100 µM

Compound: COc1c(C)c2c(c(O)c1CCOP(=O)(O)CP(=O)(O)OC[C@H]1O[C@@H](n3cnc4c([N+](=O)[O-])cccc43)[C@H](O)[C@@H]1O)C(=O)OC2
- IC50 (HeLa): > 100000 nM
- IC50 (HT-29): > 100 µM
- Ki [1]: 876 nM
- IC50 (K562): > 100 µM
- Ki [2]: 749 nM

Compound: COc1c(C)c2c(c(O)c1C/C=C(\C)CCC(=O)N[C@@H](C(=O)NC[C@H]1O[C@@H](n3cnc4c(N)ncnc43)[C@H](O)[C@@H]1O)C(C)C)C(=O)OC2
- Ki [1]: 3 nM
- IC50 (PC-3): > 100 µM
- IC50 (K562): > 100 µM
- Ki [2]: 88 nM
- IC50 (DU-145): > 100 µM
- IC50 (HL-60): > 100 µM

Compound: COc1c(C)c2c(c(O)c1C/C=C(\C)CCC(=O)N[C@@H](Cc1ccc(O)cc1)C(=O)O)C(=O)OC2
- Ki [1]: 1680 nM
- IC50 (PC-3): > 100 µM
- IC50 (K562): > 100 µM
- Ki [2]: 215 nM
- IC50 (DU-145): > 100 µM
- IC50 (HL-60): > 100 µM

Compound: COC(=O)[C@H](CCSC)NC(=O)CC/C(C)=C/Cc1c(O)c2c(c(C)c1OC)COC2=O
- Ki [1]: 2200 nM
- IC50 (K562): 3 µM
- Ki [2]: 147 nM
- IC50 (DU-145): 8.7 µM
- IC50 (HL-60): 4.5 µM

Compound: COC(=O)[C@H](Cc1c[nH]c2ccccc12)NC(=O)CC/C(C)=C/Cc1c(O)c2c(c(C)c1OC)COC2=O
- Ki [1]: 733 nM
- IC50 (PC-3): > 100 µM
- IC50 (K562): 6.2 µM
- Ki [2]: 233 nM
- IC50 (DU-145): 9.7 µM
- IC50 (HL-60): 8.3 µM
